Test results as given in patent publication US7488791B2, “Mixture of peptides derived from E6 and/or E7 papillomavirus proteins and uses thereof” (priority 2001, dated 2009).

Test system: DR7-restricted clone
Experiment: not given
Conditions: Strang et al.; cited from earlier work

Molecule | Recognition by T cell clone
E6: 42-57: HPV16 E6 peptide, positions 42-57, Strang et al. (QQLLRREVYDFAFRDL; UniProt P03126 42-57, looked up, fragment) | Recognized by DR7-restricted

Test system: cells from patients
Experiment: not given
Conditions: Kadish et al.; cited from earlier work

Molecule | Proliferation of cells from patients (CIN or normal), responders/tested
E7: 62-80: HPV16 E7 peptide, positions 62-80, Kadish et al. (DSTLRLCVQSTHVDIRTLE; UniProt P03129 62-80, looked up, fragment) | 11/35
E6: 82-111: HPV16 E6 peptide, positions 82-111, Kadish et al. (EYRHYCYSLYGTTLEQQYNKPLCDLLIRCI; UniProt P03126 82-111, looked up, fragment) | 5/34
E6: 1-31: HPV16 E6 peptide, positions 1-31, Kadish et al. (MHQKRTAMFQDPQERPRKLPQLCTELQTTIH; UniProt P03126 1-31, looked up, fragment) | 17/48
CC[C@H](C)[C@H](NC(=O)[C@@H](NC(=O)[C@@H](NC(=O)[C@H](CCC(N)=O)NC(=O)[C@H](CC(C)C)NC(=O)[C@H](CCC(=O)O)NC(=O)[C@@H](NC(=O)[C@H](CS)NC(=O)[C@H](CC(C)C)NC(=O)[C@H](CCC(N)=O)NC(=O)[C@@H]1CCCN1C(=O)[C@H](CC(C)C)NC(=O)[C@H](CCCCN)NC(=O)[C@@H](N)CCCNC(=N)N)[C@@H](C)O)[C@@H](C)O)[C@@H](C)O)C(=O)N[C@@H](Cc1c[nH]cn1)C(=O)O [E6 17-31, R K L P Q L C T E L Q T T I H] | 12/23
E7: 72-97: HPV16 E7 peptide, positions 72-97, Kadish et al. (THVDIRTLEDLLMGTLGIVCPICSQK; UniProt P03129 72-97, looked up, fragment) | 19/48
E6: 137-151: HPV16 E6 peptide, positions 137-151, Kadish et al. (GRWTGRCMSCCRSSR; UniProt P03126 137-151, looked up, fragment) | 9/23
E6: 122-151: HPV16 E6 peptide, positions 122-151, Kadish et al. (KQRHLDKKQRFHNIRGRWTGRCMSCCRSSR; UniProt P03126 122-151, looked up, fragment) | 19/48
E6: 22-51: HPV16 E6 peptide, positions 22-51, Kadish et al. (LCTELQTTIHDIILECVYCKQQLLRREVYD; UniProt P03126 22-51, looked up, fragment) | 17/46
E6: 42-71: HPV16 E6 peptide, positions 42-71, Kadish et al. (QQLLRREVYDFAFRDLCIVYRDGNPYAVCD; UniProt P03126 42-71, looked up, fragment) | 8/43

Test system: cells from patients
Experiment: not given
Conditions: De Gruijl et al.; cited from earlier work

Molecule | Proliferation of cells from patients infected with HPV, responders/tested
E7: 67-98: HPV16 E7 peptide, positions 67-98, De Gruijl et al. (LCVQSTHVDIRTLEDLLMGTLGIVCPICSQKP; UniProt P03129 67-98, looked up, fragment) | 17/28
E7: 1-32: HPV16 E7 peptide, positions 1-32, De Gruijl et al. | 8/28
E7: 43-80: HPV16 E7 peptide, positions 43-80, De Gruijl et al. (GQAEPDRAHYNIVTFCCKCDSTLRLCVQSTHVDIRTLE; UniProt P03129 43-80, looked up, fragment) | 10/28
E7: 19-56: HPV16 E7 peptide, positions 19-56, De Gruijl et al. (TTDLYCYEQLNDSSEEEDEIDGPAGQAEPDRAHYNIVT; UniProt P03129 19-56, looked up, fragment) | 10/28

Same assay, conditions: de Gruijl et al.; cited from earlier work

Molecule | Stimulation of the cells of patients, in words
E7: 67-98: HPV16 E7 peptide, positions 67-98, De Gruijl et al. (LCVQSTHVDIRTLEDLLMGTLGIVCPICSQKP; UniProt P03129 67-98, looked up, fragment) | stimulates the cells of a majority of patients

Test system: CD4+ T lymphocytes
Experiment: Proliferation assay ([3H]-thymidine incorporation) of PBMCs / cells from patients having bowenoid papulosis
Format: cell-based, human
Conditions: patient, DR 1501, DRB5
Procedure: A suspension of cells (PBMCs, CD8+ cell-depleted PBMCs, T lymphocytes pre-enriched by a step of culturing in vitro with the peptides selected according to the invention, or cloned T lymphocytes) is cultured for 3 to 5 days in the presence of the selected peptides and, as needed, of suitable presenting cells, such as dendritic cells, autologous or heterologous PBMCs, lymphoblastoid cells such as those obtained after infection with the EBV virus or genetically modified cells. The cell proliferation is measured by incorporation of tritiated thymidine into the DNA of the cells. The peptides selected in accordance with the invention make it possible to reveal, in the initial suspension, the presence of cells specific for these peptides. • as regards the ELISPOT assay:
To verify the stimulation of CD4+ T cell proliferation using immunogenic composition according to the invention, a proliferation assay is performed in vitro.
The cells (PBMCs) extracted from peripheral blood were cultured in 96-well microplates in a proportion of 2×10^5 cells per well, in a final volume of 200 μl of complete medium. The cells were or were not stimulated with 10 μg/ml of a mixture of peptides according to the invention. […] The cells were recovered and the [^3H]-thymidine incorporation was measured in a cellular DNA. […]

Molecule | Prolif: peptide recognized, in terms of proliferation, by the CD4+ T lymphocytes
CC[C@H](C)[C@H](N)C(=O)N[C@@H](CCCNC(=N)N)C(=O)NCC(=O)N[C@@H](CCCNC(=N)N)C(=O)N[C@@H](Cc1c[nH]c2ccccc12)C(=O)N[C@H](C(=O)NCC(=O)N[C@@H](CCCNC(=N)N)C(=O)N[C@@H](CS)C(=O)N[C@@H](CCSC)C(=O)N[C@@H](CO)C(=O)N[C@@H](CS)C(=O)N[C@@H](CS)C(=O)N[C@@H](CCCNC(=N)N)C(=O)N[C@@H](CO)C(=O)N[C@@H](CO)C(=O)N[C@@H](CCCNC(=N)N)C(=O)N[C@H](C(=O)N[C@@H](CCCNC(=N)N)C(=O)N[C@@H](CCCNC(=N)N)C(=O)N[C@@H](CCC(=O)O)C(=O)N[C@H](C(=O)N[C@@H](CCC(N)=O)C(=O)N[C@@H](CC(C)C)C(=O)O)[C@@H](C)O)[C@@H](C)O)[C@@H](C)O [E6/10] | weak

Test system: E7-specific T lymphocyte lines
Experiment: not given
Conditions: Altmann et al.; cited from earlier work

Molecule | Recognition by T lymphocyte line or clone from a patient
E7: 5-18: HPV16 E7 peptide, positions 5-18, Altmann et al. (TPTLHEYMLDLQPE; UniProt P03129 5-18, looked up, fragment) | Recognized by line from a DR1
E7: 69-82: HPV16 E7 peptide, positions 69-82, Altmann et al. (VQSTHVDIRTLEDL; UniProt P03129 69-82, looked up, fragment) | Recognized by clone from a DR4
E7: 17-34: HPV16 E7 peptide, positions 17-34, Altmann et al. (PETTDLYCYEQLNDSSEE; UniProt P03129 17-34, looked up, fragment) | Recognized by line from a DR4

Test system: cells in the blood
Experiment: not given
Conditions: Tsukui et al., 140 HPV16+ patients; cited from earlier work

Molecule | Secretion of IL2 (activation of cells) by patients, responders/tested
E6: 1-45: HPV16 E6 peptide, positions 1-45, Tsukui et al. (MHQKRTAMFQDPQERPRKLPQLCTELQTTIHDIILECVYCKQQLL; UniProt P03126 1-45, looked up, fragment) | 0/140
E7: 1-35: HPV16 E7 peptide, positions 1-35, Tsukui et al. | 3/140
E7: 51-98: HPV16 E7 peptide, positions 51-98, Tsukui et al. (HYNIVTFCCKCDSTLRLCVQSTHVDIRTLEDLLMGTLGIVCPICSQKP; UniProt P03129 51-98, looked up, fragment) | 7/140
E6: 111-158: HPV16 E6 peptide, positions 111-158, Tsukui et al. (INCQKPLCPEEKQRHLDKKQRFHNIRGRWTGRCMSCCRSSRTRRETQL; UniProt P03126 111-158, looked up, fragment) | 11/140
E7: 27-60: HPV16 E7 peptide, positions 27-60, Tsukui et al. (QLNDSSEEEDEIDGPAGQAEPDRAHYNIVTFCCK; UniProt P03129 27-60, looked up, fragment) | 4/140
E6: 59-112: HPV16 E6 peptide, positions 59-112, Tsukui et al. (IVYRDGNPYAVCDKCLKFYSKISEYRHYCYSLYGTTLEQQYNKPLCDLLIRCIN; UniProt P03126 59-112, looked up, fragment) | 6/140
